Assays:
Assay in all cases: relative viability (nuclei count vs DMSO), 5 days (fraction); higher = more cells survive
[1] = compound: O=C(CCCCCCNC(=O)c1cnc(N(c2ccccc2)c2ccccc2)nc1)NO [Ricolinostat] + Cc1cc(Nc2cc(N3CCN(C)CC3)nc(Sc3ccc(NC(=O)C4CC4)cc3)n2)n[nH]1 [Tozasertib] (partner 0.1 µM)
Summary of the method: (§1)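 Lung cancer cell lines were seeded in 1536-well plates and dosed by pin tool the next day, with either a single drug or a fixed anchor-drug dose combined with five library-drug doses (not always all listed) spaced in √10 steps. Five days later, one step fixed the cells and stained their nuclei (final 0.05% Triton X-100, 1% formaldehyde, 1 ug/ml Hoechst), and nuclei were counted on 4× images. Relative viability is the nuclei count in treated wells divided by the count in vehicle wells, and each value is the median of duplicate plates.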

TGX 221 + Alpelisib = compound: CC1=CN2C(=O)C=C(N=C2C(=C1)C(C)NC3=CC=CC=C3)N4CCOCC4 [TGX 221] + Cc1nc(NC(=O)N2CCC[C@H]2C(N)=O)sc1-c1ccnc(C(C)(C)C(F)(F)F)c1 [Alpelisib] (partner 2 µM)
Summary of the method: as §1

TGX 221 + Vorinostat = compound: CC1=CN2C(=O)C=C(N=C2C(=C1)C(C)NC3=CC=CC=C3)N4CCOCC4 [TGX 221] + O=C(CCCCCCC(=O)Nc1ccccc1)NO [Vorinostat] (partner 1 µM)
Summary of the method: as §1

Ricolinostat + Dasatinib = compound: O=C(CCCCCCNC(=O)c1cnc(N(c2ccccc2)c2ccccc2)nc1)NO [Ricolinostat] + Cc1nc(Nc2ncc(C(=O)Nc3c(C)cccc3Cl)s2)cc(N2CCN(CCO)CC2)n1 [Dasatinib] (partner 0.075 µM)
Summary of the method: as §1

Cell Line	relative viability ([1]; first compound 0.08 µM)	relative viability ([1]; first compound 0.253 µM)	relative viability ([1]; first compound 0.8 µM)	relative viability ([1]; first compound 2.53 µM)	relative viability (TGX 221 + Alpelisib; first compound 0.08 µM)	relative viability (TGX 221 + Alpelisib; first compound 0.253 µM)	relative viability (TGX 221 + Alpelisib; first compound 0.8 µM)	relative viability (TGX 221 + Alpelisib; first compound 2.53 µM)	relative viability (TGX 221 + Alpelisib; first compound 8 µM)	relative viability (TGX 221 + Vorinostat; first compound 0.08 µM)	relative viability (TGX 221 + Vorinostat; first compound 0.253 µM)	relative viability (TGX 221 + Vorinostat; first compound 0.8 µM)	relative viability (TGX 221 + Vorinostat; first compound 2.53 µM)	relative viability (TGX 221 + Vorinostat; first compound 8 µM)	relative viability (Ricolinostat + Dasatinib; first compound 0.08 µM)	relative viability (Ricolinostat + Dasatinib; first compound 0.253 µM)	relative viability (Ricolinostat + Dasatinib; first compound 0.8 µM)	relative viability (Ricolinostat + Dasatinib; first compound 2.53 µM)
NCI-H647	0.315	0.195	0.27	0.206	0.867	0.862	0.65	0.624	0.459	0.466	0.442	0.457	0.547	0.665	0.109	0.144	0.181	0.246
CAL-12T	0.326	0.261	0.284	0.196	1.17	1.1	1.21	0.852	0.64	0.826	0.7	0.75	0.876	0.707	0.422	0.417	0.48	0.664
201T	0.909	0.932	0.829	0.612		0.942	0.943	0.872	0.827	1	0.956	0.902	0.927	0.879	0.471	0.571	0.603	0.498
HCC-366	0.241	0.0847	0.0896	0.0599	0.307	0.234	0.245	0.0984	0.127	0.357	0.327	0.365	0.292	0.351	0.487	0.613	0.576	0.451
NCI-H1944	0.245	0.246	0.221	0.23	0.77	0.713	0.554	0.488	0.422		0.547	0.488	0.476	0.488	0.189	0.212	0.194	0.201
NCI-H1651	0.658	0.744	0.633	0.436	0.83	0.742	0.77	0.716	0.498	0.525	0.646	0.527	0.517	0.581	0.414	0.544	0.428	0.4
LCLC-97TM1	0.171	0.2	0.149	0.153	0.261	0.246	0.287	0.199	0.214	0.819	0.459	0.856	0.615	0.847	0.727	0.853	0.878	0.34
LC-2-ad	0.474	0.412	0.371	0.299	0.81		0.722	0.645	0.62	0.676	0.682	0.761	0.71	0.67	0.41	0.566	0.482	0.455
NCI-H2347	0.419	0.47	0.513	0.425	0.994	0.911	0.955	0.605	0.756	0.745	0.506	0.478	0.618	0.465	0.318	0.372	0.309	0.285
NCI-H2009	0.745	0.686	0.68	0.607	1.16	1.07	1.1	0.907	0.733	0.731	0.687	0.72	0.819	0.559	0.231	0.295	0.347	0.365
NCI-H1650	0.428	0.431	0.265	0.256						0.482	0.478	0.521	0.676	0.48	0.275	0.381	0.289	0.287
NCI-H650	0.671	0.675	0.673	0.467	1.23	1.02	1.13	0.912	0.791	0.425	0.488	0.459	0.542	0.401	0.36	0.463	0.365	0.314
NCI-H1703					0.269	0.222	0.176	0.267	0.235									
SW 900	0.596	0.509	0.393	0.459							0.473	0.403	0.37	0.505	0.495	0.578	0.662	0.352
HCC-44	1.01	0.984	0.862	0.537	0.784	0.667	0.632	0.597	0.473	1.12	1.22	1.17	1.17	1.21				
NCI-H1563					0.834	0.777	0.658	0.607	0.594						0.472	0.461	0.441	0.494
Calu-6					0.986	0.8	0.948	0.917	0.883									
NCI-H1623	0.489	0.462	0.477	0.424											0.484	0.612	0.528	0.475
EBC-1					0.738	0.526	0.426	0.321	0.32									
NCI-H522	0.616	0.565	0.54	0.641						0.976	0.822	0.883	0.831	0.826	0.867	0.884	0.946	0.872
NCI-H1648	0.273	0.536	0.366	0.237							0.295	0.651	0.395	0.421				
A549					0.63	0.52	0.542	0.377	0.28									
IA-LM					0.753	0.818	0.792	0.614	0.589		0.981	1.01	0.827	0.941				
ChaGo-K-1	0.201	0.234	0.224	0.226						0.742	0.758	0.749	0.727	0.707	0.579	0.49	0.584	0.532

Reference: the supplement of paper PMC10307832
